The test system of series [1] is pStat3 and β-catenin. The series is described as follows: cancer stemness biomarkers in pancreatic adenocarcinoma cancer stem cells (Panc-1) in vitro. Type of series: cell-based, human. The settings on record: Panc-1 cancer stem cells, FIG. 6.
Series [2] deals with human lung cancer xenograft (A549). Put plainly: human lung cancer xenograft (A549) model, metabolic tumor volume. Type of series: in vivo, mice. The conditions noted are these: 2-acetylnaphtho[2,3-b]furan-4,9-dione 100 mg/kg daily oral, paclitaxel 10.0 mg/kg q3d iv, relative to control, FIG. 7. How it is done:
The effects of 2-acetylnaphtho[2,3-b]furan-4,9-dione was examined in a human lung cancer xenograft (A549) model. Human lung cancer cells were implanted in mice and the resulting tumors were allowed to grow to a pre-determined size. Mice were treated orally with vehicle, 2-acetylnaphtho[2,3-b]furan-4,9-dione (100 mg/kg, daily, oral), paclitaxel (10.0 mg/kg, q3d, iv), or the combination of 2-acetylnaphtho[2,3-b]furan-4,9-dione (100 mg/kg, daily, oral) and paclitaxel (10.0 mg/kg, q3d, iv). The tumor sizes were monitored.
Background: Xenograft models place foreign cells or tissue in a host animal.

Series [3] concerns patients with advanced, previously treated pancreatic adenocarcinoma. The settings on record: weekly paclitaxel alone; Oettle et al, Anticancer Drugs 2000; cited from earlier work.
The subject of series [4] is p-Stat3 and β-catenin. The series is described as follows: cancer stemness biomarkers in human colon cancer xenograft tumor (SW480), immunofluorescence. Type of series: in vivo. The settings on record: SW480 xenograft in nude mice, e.g. 50 mg/kg BID oral gavage, tumors harvested 24 hours after first dosing, FIG. 5. How it is done: The effects of 2-acetylnaphtho[2,3-b]furan-4,9-dione, a compound of formula (I), on cancer stem cell markers was examined in cancer xenograft models with and without paclitaxel.
Human cancer cells were subcutaneously implanted into the right flank of 5-7 weeks old female athymic nude mice. When tumor size reached 200 mm^3, animals were treated with 2-acetylnaphtho[2,3-b]furan-4,9-dione, for example, at 50 mg/kg (BID) by oral gavage (n=3/group), paclitaxel, or a combination of 2-acetylnaphtho[2,3-b]furan-4,9-dione and paclitaxel. Tumors were harvested at 24 hours after first dosing.
The harvested tissues were fixed in 3.7% neutral buffered formaldehyde at 4° C. for overnight. The paraffin was embedded, cut to about 5 microns, and affixed onto positively-charged slides. After being baked and de-paraffinized, the slides with tumor or control tissues were incubated in 10 mM sodium citrate (pH 6.0) for 10 minutes. After antigen retrieval, slides were probed with primary antibodies P-STAT3 (rabbit, Cell Signaling, 1:100), β-Catenine (mouse, Santa Cruz, 1:400) at 4° C. overnight, and then Alexa Fluor fluorescent dyes-conjugated secondary antibodies (1:500, Invitrogen). After mounting, the slides with ProLong mounting medium with DAPI (Invitrogen) were examined under a Zeiss fluorescence microscope with 20× objective, and analyzed with Zen software.

The test system of series [5] is cancer patients (CRC patients). The series is described as follows: clinical trials, survival by Stat3/pStat3 expression level. Type of series: in vivo, human. The conditions noted are these: after treatment in clinical trials; at least in CRC patients. The text has this: Thus, the higher the level of pStat3 found in a cancer patient before treatment, at least in CRC patients, the higher the overall survival (OS) upon administering a treatment comprising a compound of formula (I).

Series [6] is described as follows: open label phase Ib dose-escalation study, safety, tolerability and RP2D. Type of series: in vivo, human. The conditions noted are these: in combination with weekly paclitaxel. How it is done: In the open label phase lb dose-escalation study, the safety, tolerability and recommended phase 2 dose (RP2D) of 2-acetylnaphtho[2,3-b]furan-4,9-dione in combination with paclitaxel were assessed in adult patients with advanced solid tumors.
The effects of 2-acetylnaphtho[2,3-b]furan-4,9-dione in combination with paclitaxel were clinically evaluated. […] Phase II accrual to disease-specific cohorts included patients with advanced, heavily pre-treated metastatic non-small cell lung cancer (NSCLC).

Series [7] deals with Stat3 pathway. The settings on record: cellular; according to U.S. Pat. No. 8,877,803; cited from earlier work.

In the case of `CC(=O)O[C@H]1C(=O)[C@@]2(C)[C@H]([C@H](OC(=O)c3ccccc3)[C@]3(O)C[C@H](OC(=O)[C@H](O)[C@@H](NC(=O)c4ccccc4)c4ccccc4)C(C)=C1C3(C)C)[C@]1(OC(C)=O)CO[C@@H]1C[C@@H]2O` [paclitaxel], the “staining for stem cell markers (pStat3, β-catenin)” value in series [1] is “enhanced staining”. The metabolic tumor volume entry in series [2] is “reduced metabolic tumor volume relative to control”. Further, the “median overall survival (mOS)” value in series [3] is given as “about 17.5 weeks”.
As for `CC(=O)c1cc2c(o1)C(=O)c1ccccc1C2=O` [2-acetylnaphtho[2,3-b]furan-4,9-dione], in series [4], the “expression of p-Stat3 and β-catenin stem cell markers” value was “dramatically reduced expression”. Further, in series [2], the metabolic tumor volume result was “reduced metabolic tumor volume relative to control”. Also, the “overall survival of patients with higher expression levels of Stat3” value in series [5] is “prolonged overall survival”. In addition, in series [6], the “recommended phase 2 dose of 2-acetylnaphtho[2,3-b]furan-4,9-dione” value came to 480 mg BID. For the same compound, the concentration for half-maximal inhibition (IC50) (in general, the concentration at which inhibition is half-maximal) in series [7] is approximately 250 nM.

(Values after patent publication US20180085341A1, “METHODS FOR TREATING CANCER” (BOSTON BIOMEDICAL, INC., priority 2015, published 2018).)
